The target in one data set is T1, PZD2 (Escherichia coli, UniProt P0AA25, D27I/F13A/L18H/Y71A).
T1 construct: made in house; host or cells: E. coli BL21 (DE3), vector pET-11a
As to the kind of experiment: Inhibition of PZD2 catalyzed PNPA hydrolysis. The data set is classed as biochemical, E. coli. The text has this: With this in mind, we assayed the inhibitory effects of p-nitrophenol glycerol (PNPG), a highly soluble compound with structural similarity to PNPA.

A short description of data set [1]: Steady state kinetics of PNPA hydrolysis by protozymes. The data set is classed as biochemical. To be noted: qualitative statement.
Data set [2] can be described thus: Burst phase PNPA hydrolysis assay at high substrate concentration. To be noted: 1.6 mM PNPA, 4 μM protein (FIG. 7).
Procedure: PZD2 was dialyzed extensively against 10 mM sodium phosphate buffer at pH 6.95. Kinetic experiments at 22° C. were started by the addition of substrate dissolved in acetonitrile to buffer solution with and without PZD2 (final protein concentration of 4 μM). Protein concentration was determined by UV absorbance in 6M guanidinium hydrochloride assuming an extinction coefficient of 12400 M^−1cm^−1 at 280 nm. Product concentration was determined by the change in absorbance at 400.5 nm assuming an extinction coefficient for deprotonated PNP of 19700 M^31 1cm^−1. Final acetronitrile concentration was 1% for all experiments. The steady state rate of hydrolysis by PZD2 was corrected for the buffer rate. Burst phase hydrolysis assays were performed at a substrate concentration of 1.6 mM. Protein concentration was 4 μM, with the exception of wild type thioredoxin. Wild type thioredoxin was assayed at 50 μM to improve signal to noise and extrapolated to a protein concentration of 4 μM. The dead time for this experiment was approximately 30 seconds.

T1 sequence (P0AA25 2-109 F13A/L18H/D27I/Y71A): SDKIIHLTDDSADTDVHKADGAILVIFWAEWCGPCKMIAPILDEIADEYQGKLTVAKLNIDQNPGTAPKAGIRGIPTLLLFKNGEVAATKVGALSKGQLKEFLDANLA

In the case of `O=[N+]([O-])c1ccc(OP(=O)(O)O)cc1` [p-nitrophenyl phosphate], the inhibition result on PZD2 (concentrations up to 20 mM) is on record as “did not show detectable inhibition”.
As for “Wild type thioredoxin: thioredoxin protein from E. coli, scaffold; wild type sequence, H at position 6 with no binding site mutations”, the entries for the “enzyme-like activity toward PNPA hydrolysis” value in data set [1] and in data set [1] (listed as wild type protein) were “essentially catalytically inert” and “does not exhibit enzyme-like activity”, respectively. The “catalytic activity (PNPA hydrolysis)” value in data set [2] was “essentially inactive”.
In the case of p-nitrophenol glycerol [PNPG], the Ki on PZD2 (fixed substrate concentration, read-out: K1 (Dixon analysis of inhibition)) came to 20 mM. On PZD2 (presence and absence of inhibitor, 10 mM PNPG (FIG. 9)), the “mode of inhibition (double reciprocal analysis)” value was “competitive inhibition”.

(Values after patent US20020183937A1, “Method for the generation of proteins with new enzymatic function” (priority 2001, published 2002).)
